These results are taken from ChEMBL document CHEMBL1938364, “Discovery of orally active pyrazoloquinolines as potent PDE10 inhibitors for the management of schizophrenia” (Bioorg Med Chem Lett, 2012).

Activity calls are given as the source filed them. No cut-off for these calls is given here. Bounds are passed on as bounds.

For data set [1], the target named is cAMP and cAMP-inhibited cGMP 3',5'-cyclic phosphodiesterase 10A (Homo sapiens, UniProt Q9Y233). As to the kind of experiment: Displacement of [3H]cAMP from human recombinant PDE10A1 by competitive binding assay.
Chain of cAMP and cAMP-inhibited cGMP 3',5'-cyclic phosphodiesterase 10A (Q9Y233 whole entry): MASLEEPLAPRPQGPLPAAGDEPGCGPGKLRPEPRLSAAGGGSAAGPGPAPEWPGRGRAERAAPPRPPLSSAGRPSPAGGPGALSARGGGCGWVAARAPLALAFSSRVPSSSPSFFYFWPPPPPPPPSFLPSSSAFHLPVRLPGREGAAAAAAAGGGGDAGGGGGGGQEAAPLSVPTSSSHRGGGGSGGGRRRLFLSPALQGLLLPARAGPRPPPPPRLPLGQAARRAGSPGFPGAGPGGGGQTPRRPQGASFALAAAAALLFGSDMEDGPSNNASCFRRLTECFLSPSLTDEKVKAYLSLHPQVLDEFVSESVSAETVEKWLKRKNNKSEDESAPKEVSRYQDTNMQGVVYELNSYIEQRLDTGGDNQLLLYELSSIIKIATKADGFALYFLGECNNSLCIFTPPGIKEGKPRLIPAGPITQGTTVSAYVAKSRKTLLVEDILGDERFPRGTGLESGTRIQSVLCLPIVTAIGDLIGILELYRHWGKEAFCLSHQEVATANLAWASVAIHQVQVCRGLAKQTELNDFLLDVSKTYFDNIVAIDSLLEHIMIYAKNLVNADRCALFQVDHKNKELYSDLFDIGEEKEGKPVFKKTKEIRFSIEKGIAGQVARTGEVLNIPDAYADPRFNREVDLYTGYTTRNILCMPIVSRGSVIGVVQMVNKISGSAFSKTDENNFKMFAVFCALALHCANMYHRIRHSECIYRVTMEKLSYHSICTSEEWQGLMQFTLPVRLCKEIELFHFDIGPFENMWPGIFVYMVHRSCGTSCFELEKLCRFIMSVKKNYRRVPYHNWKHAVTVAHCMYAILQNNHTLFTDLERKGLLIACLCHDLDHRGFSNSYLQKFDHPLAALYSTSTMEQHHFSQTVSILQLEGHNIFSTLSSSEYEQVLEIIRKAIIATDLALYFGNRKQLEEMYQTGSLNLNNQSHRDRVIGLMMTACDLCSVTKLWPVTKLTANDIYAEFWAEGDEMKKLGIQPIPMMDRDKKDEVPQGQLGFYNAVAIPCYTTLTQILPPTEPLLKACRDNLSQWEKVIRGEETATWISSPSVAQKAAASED
The target of data set [2] is cGMP-specific 3',5'-cyclic phosphodiesterase (Homo sapiens, UniProt O76074). As to the kind of experiment: Displacement of [3H]cAMP from PDE5A1 by competitive binding assay. (In general: In a radioligand displacement assay an active substance lowers the binding of a labelled ligand.)
Data set [3] can be described thus: Displacement of [3H]cAMP from PDE6 by competitive binding assay.
Data set [4] deals with Rattus norvegicus. As to the kind of experiment: Antipsychotic activity in rat schizophrenia model assessed as inhibition of MK801-induced hyperactivity at 10 mg/kg, po. The class given is functional. The arrangement: scale not given: the % may be the effect or the level left.
In data set [5] the test system is Rattus norvegicus. As to the kind of experiment: Antipsychotic activity in rat schizophrenia model assessed as inhibition of MK801-induced hyperactivity at 3 mg/kg, po. The class given is functional.
The test system of data set [6] is Rattus norvegicus. The data set is described as follows: Antipsychotic activity in rat schizophrenia model assessed as inhibition of MK801-induced hyperactivity at 30 mg/kg, po. In kind it is functional. The arrangement: scale not given: the % may be the effect or the level left.
The target of data set [7] is cGMP-dependent 3',5'-cyclic phosphodiesterase (Homo sapiens, UniProt O00408). The data set is described as follows: Displacement of [3H]cAMP from PDE2A by competitive binding assay.
Data set [8] concerns the target Dual specificity calcium/calmodulin-dependent 3',5'-cyclic nucleotide phosphodiesterase 1A (Homo sapiens, UniProt P54750). As to the kind of experiment: Displacement of [3H]cAMP from PDE1A3 by competitive binding assay.
Data set [9] has as its target 3',5'-cyclic-AMP phosphodiesterase 4B (Homo sapiens, UniProt Q07343). As to the kind of experiment: Displacement of [3H]cAMP from PDE4B2 by competitive binding assay.
For data set [10], the target named is High affinity cAMP-specific and IBMX-insensitive 3',5'-cyclic phosphodiesterase 8A (Homo sapiens, UniProt O60658). As to the kind of experiment: Displacement of [3H]cAMP from PDE8A1 by competitive binding assay.
In data set [11] the target is High affinity 3',5'-cyclic-AMP phosphodiesterase 7A (Homo sapiens, UniProt Q13946). The data set is described as follows: Displacement of [3H]cAMP from PDE7A1 by competitive binding assay.
Data set [12] has as its target cGMP-inhibited 3',5'-cyclic phosphodiesterase 3A (Homo sapiens, UniProt Q14432). As to the kind of experiment: Displacement of [3H]cAMP from PDE3A by competitive binding assay.
For data set [13], the target named is High affinity cGMP-specific 3',5'-cyclic phosphodiesterase 9A (Homo sapiens, UniProt O76083). The data set is described as follows: Displacement of [3H]cAMP from PDE9A1 by competitive binding assay.
Data set [14] in a line: Protein binding in rat. The conditions noted are these: plasma, read-out: PB (converted). The class given is ADME, organism-based.
The species entered for data set [15] is Rattus norvegicus. As to the kind of experiment: Ratio of drug level in brain to plasma in rat after 6 hrs. In kind it is ADME, organism-based.
Data set [16] addresses Cytochrome P450 2C9 (Homo sapiens, UniProt P11712). The data set is described as follows: Inhibition of CYP2C9 up to 20 uM. In kind it is ADME.
Data set [17] deals with Rattus norvegicus. As to the kind of experiment: Antipsychotic activity in orally dosed rat schizophrenia model assessed as inhibition of MK801-induced hyperactivity. In kind it is functional. The conditions noted are these: po, read-out: MED.
Data set [18] can be described thus: Drug level in rat brain after 6 hrs. The class given is ADME, organism-based. The settings on record: read-out: Ct.
Data set [19] concerns the target Cytochrome P450 2D6 (Homo sapiens, UniProt P10635). As to the kind of experiment: Inhibition of CYP2D6 up to 20 uM. The class given is ADME.
Data set [20] can be described thus: Clearance in monkey hepatocytes assessed per million cells. In kind it is ADME, cell-based, Macaca mulatta, Hepatocyte. The settings on record: rhesus monkey, read-out: CLH.
A short description of data set [21]: Clearance in rat hepatocytes assessed per million cells. In kind it is ADME, cell-based, Hepatocyte. The settings on record: read-out: CLH.
Data set [22] has as its target Cytochrome P450 3A4 (Homo sapiens, UniProt P08684). As to the kind of experiment: Inhibition of CYP3A4 up to 20 uM. The class given is ADME.
Data set [23] can be described thus: Clearance in human hepatocytes assessed per million cells. The class given is ADME, cell-based, Hepatocyte. The conditions noted are these: read-out: CLH.
The target in data set [24] is hERG (KCNH2) (Homo sapiens, UniProt Q12809). As to the kind of experiment: Inhibition of human ERG at 10 uM.
Chain of hERG (KCNH2) (Q12809 whole entry): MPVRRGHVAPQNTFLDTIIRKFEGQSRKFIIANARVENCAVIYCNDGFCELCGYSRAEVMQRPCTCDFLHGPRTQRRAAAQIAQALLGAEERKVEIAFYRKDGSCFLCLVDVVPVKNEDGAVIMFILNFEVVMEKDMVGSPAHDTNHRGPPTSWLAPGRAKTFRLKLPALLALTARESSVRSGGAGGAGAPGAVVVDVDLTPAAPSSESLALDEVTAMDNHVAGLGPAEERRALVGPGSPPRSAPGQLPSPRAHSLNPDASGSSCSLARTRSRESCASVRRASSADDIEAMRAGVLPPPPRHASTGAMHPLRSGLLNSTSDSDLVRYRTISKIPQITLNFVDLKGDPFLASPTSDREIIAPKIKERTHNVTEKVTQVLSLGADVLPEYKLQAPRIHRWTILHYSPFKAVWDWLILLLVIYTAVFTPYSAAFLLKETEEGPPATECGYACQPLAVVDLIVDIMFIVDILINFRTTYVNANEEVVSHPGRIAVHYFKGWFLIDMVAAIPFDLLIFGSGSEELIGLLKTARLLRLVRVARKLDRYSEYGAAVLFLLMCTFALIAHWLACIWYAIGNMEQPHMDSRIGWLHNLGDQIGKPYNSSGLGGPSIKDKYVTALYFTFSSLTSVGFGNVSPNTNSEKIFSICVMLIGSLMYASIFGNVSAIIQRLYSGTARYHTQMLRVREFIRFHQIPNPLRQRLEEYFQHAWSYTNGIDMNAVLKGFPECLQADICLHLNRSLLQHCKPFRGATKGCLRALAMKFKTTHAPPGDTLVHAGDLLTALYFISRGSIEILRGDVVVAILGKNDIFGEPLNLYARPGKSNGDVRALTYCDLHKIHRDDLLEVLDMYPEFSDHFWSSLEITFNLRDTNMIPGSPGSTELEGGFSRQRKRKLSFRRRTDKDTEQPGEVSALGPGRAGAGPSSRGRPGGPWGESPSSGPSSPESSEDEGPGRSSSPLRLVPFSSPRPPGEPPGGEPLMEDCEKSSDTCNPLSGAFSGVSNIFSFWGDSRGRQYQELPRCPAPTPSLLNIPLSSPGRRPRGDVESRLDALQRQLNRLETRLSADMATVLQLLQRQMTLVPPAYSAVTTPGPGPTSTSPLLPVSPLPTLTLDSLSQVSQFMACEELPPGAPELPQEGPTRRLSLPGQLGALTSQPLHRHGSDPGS
For data set [25], the system named is Rattus norvegicus. As to the kind of experiment: Toxicity in orally dosed rat schizophrenia model assessed as induction of hypolocomotion. The settings on record: in vivo, po. In kind it is organism-based.

Chain of cGMP-inhibited 3',5'-cyclic phosphodiesterase 3A (Q14432 whole entry): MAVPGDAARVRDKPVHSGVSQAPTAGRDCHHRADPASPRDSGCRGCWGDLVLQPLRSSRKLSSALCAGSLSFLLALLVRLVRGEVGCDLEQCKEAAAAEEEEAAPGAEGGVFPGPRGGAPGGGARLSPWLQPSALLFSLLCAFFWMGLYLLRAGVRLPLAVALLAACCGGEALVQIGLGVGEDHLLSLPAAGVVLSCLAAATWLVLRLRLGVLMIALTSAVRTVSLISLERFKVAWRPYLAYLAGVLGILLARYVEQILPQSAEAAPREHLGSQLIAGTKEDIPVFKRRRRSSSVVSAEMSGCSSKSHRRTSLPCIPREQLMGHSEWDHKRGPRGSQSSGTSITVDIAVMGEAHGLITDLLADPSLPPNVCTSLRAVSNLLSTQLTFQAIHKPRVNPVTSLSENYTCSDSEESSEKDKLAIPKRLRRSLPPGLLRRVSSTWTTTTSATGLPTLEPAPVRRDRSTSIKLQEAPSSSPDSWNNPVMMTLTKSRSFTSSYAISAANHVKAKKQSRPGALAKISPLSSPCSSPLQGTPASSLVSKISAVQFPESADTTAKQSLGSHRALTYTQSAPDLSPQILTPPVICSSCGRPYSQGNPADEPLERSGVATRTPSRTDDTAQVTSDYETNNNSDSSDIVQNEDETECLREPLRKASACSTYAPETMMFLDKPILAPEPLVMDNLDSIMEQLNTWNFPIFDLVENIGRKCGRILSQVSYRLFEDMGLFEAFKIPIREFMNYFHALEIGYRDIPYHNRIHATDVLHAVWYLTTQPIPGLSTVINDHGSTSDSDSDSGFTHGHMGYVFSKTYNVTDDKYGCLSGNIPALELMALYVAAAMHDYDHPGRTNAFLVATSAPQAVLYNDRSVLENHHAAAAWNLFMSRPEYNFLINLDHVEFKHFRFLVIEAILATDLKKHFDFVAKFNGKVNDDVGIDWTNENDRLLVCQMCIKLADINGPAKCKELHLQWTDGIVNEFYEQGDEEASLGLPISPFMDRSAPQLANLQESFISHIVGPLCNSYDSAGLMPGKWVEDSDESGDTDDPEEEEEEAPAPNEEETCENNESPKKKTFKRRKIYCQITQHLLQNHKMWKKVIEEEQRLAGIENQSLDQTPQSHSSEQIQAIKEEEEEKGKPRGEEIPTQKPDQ
Chain of Dual specificity calcium/calmodulin-dependent 3',5'-cyclic nucleotide phosphodiesterase 1A (P54750 whole entry): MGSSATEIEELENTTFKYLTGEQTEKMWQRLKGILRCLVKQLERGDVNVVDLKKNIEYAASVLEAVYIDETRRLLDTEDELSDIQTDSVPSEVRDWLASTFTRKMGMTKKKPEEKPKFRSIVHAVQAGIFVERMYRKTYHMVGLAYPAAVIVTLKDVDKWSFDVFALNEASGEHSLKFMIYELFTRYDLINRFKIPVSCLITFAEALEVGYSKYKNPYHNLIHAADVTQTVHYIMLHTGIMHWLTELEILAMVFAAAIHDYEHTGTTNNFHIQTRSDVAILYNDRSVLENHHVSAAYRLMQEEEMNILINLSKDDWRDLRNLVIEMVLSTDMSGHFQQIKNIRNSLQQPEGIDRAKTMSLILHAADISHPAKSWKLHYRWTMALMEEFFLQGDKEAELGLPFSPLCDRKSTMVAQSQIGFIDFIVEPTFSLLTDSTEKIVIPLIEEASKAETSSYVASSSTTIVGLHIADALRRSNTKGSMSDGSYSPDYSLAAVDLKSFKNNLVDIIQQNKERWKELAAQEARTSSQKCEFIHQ
Chain of 3',5'-cyclic-AMP phosphodiesterase 4B (Q07343 whole entry): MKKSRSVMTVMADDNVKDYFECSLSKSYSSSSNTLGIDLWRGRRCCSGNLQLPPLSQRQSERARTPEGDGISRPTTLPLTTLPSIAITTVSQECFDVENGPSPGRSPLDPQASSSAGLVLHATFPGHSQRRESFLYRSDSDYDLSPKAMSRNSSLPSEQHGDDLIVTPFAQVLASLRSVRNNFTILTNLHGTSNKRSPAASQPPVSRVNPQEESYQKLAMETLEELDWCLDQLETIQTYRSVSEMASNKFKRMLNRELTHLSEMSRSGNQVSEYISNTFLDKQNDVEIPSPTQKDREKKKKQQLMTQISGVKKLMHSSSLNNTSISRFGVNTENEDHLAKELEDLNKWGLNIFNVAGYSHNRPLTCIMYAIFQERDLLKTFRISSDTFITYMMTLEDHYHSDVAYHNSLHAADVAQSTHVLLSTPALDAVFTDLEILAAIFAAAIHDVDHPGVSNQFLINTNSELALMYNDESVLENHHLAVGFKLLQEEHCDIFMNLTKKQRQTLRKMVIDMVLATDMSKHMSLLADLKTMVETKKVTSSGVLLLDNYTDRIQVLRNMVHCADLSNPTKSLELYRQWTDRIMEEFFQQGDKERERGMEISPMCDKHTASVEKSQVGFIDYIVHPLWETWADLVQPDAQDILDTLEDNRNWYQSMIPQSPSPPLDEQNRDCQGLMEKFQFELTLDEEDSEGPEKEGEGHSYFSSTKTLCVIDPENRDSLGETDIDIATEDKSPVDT

A word on the Ki: it is a measure of affinity in units of concentration, obtained from inhibition or displacement. For `Cc1n[nH]c2nc3c(OC(F)(F)F)cc(Br)cc3c(CN3CCCOCC3)c12`, in data set [1], the Ki was 37 nM.
Still for that read-out and setting: under `COc1cc(C)c2nc3[nH]nc(C)c3c(CN3CCCCC3)c2c1` stands 804 nM.
As for `COc1cc(C)c2nc3[nH]nc(C)c3c(CN3CCOCC3)c2c1`, the Ki amounted to 10600 nM in data set [2] and 2000 nM in data set [3]. The Activity in data set [4] was found to be 131%; in data set [6], 109%. Moreover, the outcome in data set [5] was inactive.
Take `COc1cc(C)c2nc3[nH]nc(C)c3c(CN3CCOC(CO)C3)c2c1` (stereo not drawn): the results for the Ki in data set [1], in data set [2] and in [3] were 0.6 nM, 5000 nM and 300 nM, respectively. Moreover, the result in [4] and in [5] was inactive. In addition, the Activity in [6] is listed as 104%.
Turning to `COCCOc1cc(C)c2nc3[nH]nc(C)c3c(CN3CCCOCC3)c2c1`, the Ki in data set [1] is 1 nM; in [7], above 10000 nM; in data set [8] it was above 10000 nM; in data set [2], 24400 nM; in [9], above 10000 nM; in data set [10], above 10000 nM. The Ki in data set [3] was 5900 nM; in [11], above 10000 nM; in [12], above 10000 nM; in data set [13] it was above 10000 nM.
For the molecule `COc1ccc2nc3[nH]nc(C)c3c(CN3CCCOCC3)c2c1`, the Ki in data set [1] worked out at 153 nM.
`COc1cc(C)c2nc3[nH]nc(C)c3c(CN3[C@@H]4CC[C@H]3C[C@@H](O)C4)c2c1`: the Ki in data set [1] is 265 nM.
Consider `COc1cc(C)c2nc3[nH]nc(C)c3c(CN3CC[C@@H](O)C3)c2c1`, for which the Ki in [1] came out at 3 nM; in [2], 6400 nM; in data set [3], 4700 nM. The result in data set [4] and in [5] was inactive. In addition, the Activity in [6] was 102%.
On to `Cc1cc(OC(C)C)cc2c(CN3CCCOCC3)c3c(C)n[nH]c3nc12`, for which, in [1], the Ki was 8 nM.
Still for that read-out and setting: in the case of `COc1cc(C)c2nc3[nH]nc(C)c3c(CN3C[C@@H](C)O[C@@H](C)C3)c2c1` it was 26 nM.
The term inhibition denotes the percentage by which the read-out fell short of the control. `COc1cc(C)c2nc3[nH]nc(C)c3c(CN3CCCOCC3)c2c1`: in data set [14], the fraction unbound is 0.03. Further, in [15], the BPR is recorded as 1.56. Moreover, the “inhibition (INH)” value in data set [16], in [19] and in [22] was “Not Active” each time. The minimal effective dose in data set [17] is 3 mg/kg. The Ki was determined as 9700 nM in [2] and 2100 nM in data set [3]. Besides, in data set [18], the concentration at 6 h turned out to be 42 ng/g. The Activity in data set [4] was 120%; in data set [5], 66%; in data set [6] it was 103%. The values for the hepatocyte CLint in data set [20], in [21] and in data set [23] were 6 µL/min/1e6 cells, below 1 µL/min/1e6 cells and 8.3 µL/min/1e6 cells, respectively. For the same molecule, the inhibition at 10 µM in [24] amounted to 5.3%. Moreover, in [25], the MED is 30 mg/kg.
`COc1cc(C)c2nc3[nH]nc(C)c3c(CN3CCCC3)c2c1`: the Ki in data set [1] is 24 nM. The minimal effective dose in data set [17] is 1 mg/kg. Also, the Activity in data set [4] was determined as 107%; in data set [5], 96%; in data set [6], 122%.
As to `Cc1n[nH]c2nc3ccc(C(F)(F)F)cc3c(CN3CCCOCC3)c12`, the Ki in [1] was 104 nM.
As for `COc1cc(C)c2nc3[nH]nc(C)c3c(CN3CCOC(C)C3)c2c1` (stereo not drawn), the Ki in data set [1] turned out to be 3 nM; in [2] it was 8900 nM; in data set [3], 8300 nM. Besides, the Activity in [4] is on record as 88%; in data set [6], 130%. Further, in [5], the outcome was inactive.
Consider `COc1cc(C)c2nc3[nH]nc(C)c3c(CN3CCC(C(F)(F)F)CC3)c2c1`, for which the Ki in data set [1] stood at 871 nM.
On the same count and under the same terms, in the case of `COc1cc(C)c2nc3[nH]nc(C)c3c(CN3CCCC(C(F)(F)F)C3)c2c1` (stereo not drawn) it was 353 nM; in that of `Cc1cc(OC(F)(F)F)cc2c(CN3CCCOCC3)c3c(C)n[nH]c3nc12`, 19 nM.
For `COc1cc(C)c2nc3[nH]nc(C)c3c(CN3CCC(CO)C3)c2c1` (stereo not drawn), in data set [1], the Ki amounted to 32 nM. Besides, the outcome in data set [4] and in [5] was inactive. The Activity in data set [6] is 38%.
For the molecule `Cc1cc(O)cc2c(CN3CCCOCC3)c3c(C)n[nH]c3nc12`, the figures for the Ki in [1], in data set [2] and in [3] were 2 nM, 20800 nM and 2400 nM, respectively.
As to `COc1cc(OC)c2nc3[nH]nc(C)c3c(CN3CCCOCC3)c2c1`, the Ki in data set [1] came to 14 nM.
For `COc1cc(C)c2nc3[nH]nc(C)c3c(CN3CCC(O)CC3)c2c1`, in data set [1], the Ki is 57 nM. Moreover, the result in data set [4] and in [5] was inactive. Besides, the Activity in data set [6] stood at 136%.
`Cc1cc(Cl)cc2c(CN3C4CCC3CC4)c3c(C)n[nH]c3nc12`: the Ki in [1] turned out to be 229 nM.
Same read-out and setting: in the case of `COc1cc(C)c2nc3[nH]nc(C)c3c(CN3CCOC(C)(C)C3)c2c1` it was 171 nM.
With `COc1cc(C)c2nc3[nH]nc(C)c3c(CN3CCN[C@H](C)C3)c2c1`, in data set [1], the inhibition constant Ki turned out to be 30 nM. In addition, in [6], the result was inactive.
As to `COc1cc(C)c2nc3[nH]nc(C)c3c(CN3CCNCC3)c2c1`, the Ki in data set [1] turned out to be 49 nM. Also, the result in data set [6] was inactive.
With `COc1cc(C)c2nc3[nH]nc(C)c3c(CN3CCC(F)CC3)c2c1`, the Ki in [1] was found to be 202 nM.
Still for that read-out and setting: in the case of `COc1cc(C)c2nc3[nH]nc(C)c3c(CN3C4CCC3CC4)c2c1` it was 1200 nM.
Still for that read-out and setting: in the case of `COc1cc(C)c2nc3[nH]nc(C)c3c(CN3CC4CC3CO4)c2c1` (stereo not drawn) it was 46 nM.
For `COc1cc(C)c2nc3[nH]nc(C)c3c(CN3CCNC(=O)C3)c2c1`, the Ki in data set [1] was 9 nM. Further, the outcome in data set [6] was inactive.
Consider `Cc1cc(Cl)cc2c(CN3CC4CC3CO4)c3c(C)n[nH]c3nc12` (stereo not drawn), for which the Ki in data set [1] was 60 nM.
With `Cc1cc(Cl)cc2c(CN3CCCOCC3)c3c(C)n[nH]c3nc12`, the Ki in [1] turned out to be 41 nM. Moreover, the result in [4] and in data set [5] was inactive. For the same molecule, the Activity in [6] came to 87%.
